Laboratory results taken from article PMC6382696, “Drug Repurposing: The Anthelmintics Niclosamide and Nitazoxanide Are Potent TMEM16A Antagonists That Fully Bronchodilate Airways” (Frontiers in Pharmacology, 2019).
Values joined by “and” are separate entries in the source; they are usually repeats but may differ in a detail not shown here. Equal entries are not always repeated. “Also recorded” adds a separate entry of the source. Where two headings read alike, the source gives them in different places.

Legend:
[1] = test system: Wnt/β-catenin transcription; test: Wnt/β-catenin transcription TOPFlash reporter assay; assay type: cell-based; settings: Wnt TopFlash IC50 over TMEM16A eYFP IC50
[2] = test system: Wnt/β-catenin transcription; settings: ref Mook et al. (2015); read-out: Mook et al. Wnt/β-catenin TopFlash (IC50); cited from earlier work
hTMEM16A (abc) = target: T1, hTMEM16A (abc) (Homo sapiens, UniProt Q5XXA6, DEL476-501); test: medchem TMEM16A halide-sensitive YFP assay, 22-point dose-response; assay type: cell-based; parameters: expressed in transfected cells; settings: iodide as permeant anion
T1 sequence (Q5XXA6 with tags, fused parts or gaps isoform Q5XXA6-5 DEL539-564): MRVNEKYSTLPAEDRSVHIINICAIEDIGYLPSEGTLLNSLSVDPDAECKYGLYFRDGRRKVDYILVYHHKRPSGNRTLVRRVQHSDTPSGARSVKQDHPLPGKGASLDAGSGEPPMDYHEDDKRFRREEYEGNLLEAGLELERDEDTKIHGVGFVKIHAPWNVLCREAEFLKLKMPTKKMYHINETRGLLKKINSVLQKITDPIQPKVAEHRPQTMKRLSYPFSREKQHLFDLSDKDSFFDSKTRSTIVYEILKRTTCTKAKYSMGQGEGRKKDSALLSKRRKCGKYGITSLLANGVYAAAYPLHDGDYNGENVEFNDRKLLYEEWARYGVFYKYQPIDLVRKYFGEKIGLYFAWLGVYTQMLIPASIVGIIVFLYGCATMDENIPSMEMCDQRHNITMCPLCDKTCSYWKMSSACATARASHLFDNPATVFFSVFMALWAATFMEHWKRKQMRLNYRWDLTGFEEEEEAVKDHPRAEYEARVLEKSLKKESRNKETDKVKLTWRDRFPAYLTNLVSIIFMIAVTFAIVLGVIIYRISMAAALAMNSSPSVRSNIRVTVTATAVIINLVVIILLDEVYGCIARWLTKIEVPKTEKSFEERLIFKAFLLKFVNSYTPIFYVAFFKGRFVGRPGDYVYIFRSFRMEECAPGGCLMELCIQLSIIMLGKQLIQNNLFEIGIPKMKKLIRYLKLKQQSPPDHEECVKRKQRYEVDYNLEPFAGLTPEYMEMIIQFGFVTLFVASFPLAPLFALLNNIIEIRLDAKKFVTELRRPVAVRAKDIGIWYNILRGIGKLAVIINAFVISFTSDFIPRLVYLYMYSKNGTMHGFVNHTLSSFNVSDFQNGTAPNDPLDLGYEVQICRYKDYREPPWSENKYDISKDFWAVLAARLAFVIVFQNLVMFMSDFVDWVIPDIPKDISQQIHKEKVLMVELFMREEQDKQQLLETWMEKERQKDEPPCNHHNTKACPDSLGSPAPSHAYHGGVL
Procedure: The TMEM16A HEK293T eYFP (H149Q, I153L) stable cell line for medchem support was generated by transfecting 10 μg of linearized hTMEM16A(abc) DNA constructs into HEK293T eYFP (H149Q,I153L) stable cells. The transfected cells were cultured under 200 μg/ml of hygromycin B selection for 20 days and the stable pool was single cell seeded in 96 well plate and duplicated plate were made after single cell clones were formed. YFP function assay were performed on duplicated plate and clones producing higher changes in fluorescence from the YFP assay were chosen for further expansion to form a stable cell line.
Plates were incubated for 24 h at 37°C with 5% CO2. On the assay day, medium was removed and replaced with 20 μl/well of assay buffer (Hank’s Balanced Salt Solution with 10 mM HEPES pH 7.4), 10 μl/well of 40x diluted compounds was added to assay plate and it was incubated at room temperature for 30 min, after which baseline fluorescence was read in the FLIPR instrument for 10 s. Then, 5 μl/well of a 3x trigger solution (24 mM iodide, 3 μM ionomycin in assay buffer) was added and the fluorescence kinetic trace was recorded for 2 min.

mouse tracheal rings [3] = test: Wire myograph bronchodilation of carbachol pre-contracted mouse tracheal rings
Procedure: The trachea from C57 BL/6 mice was dissected and collected in PBS with Mg^2+ and Ca^2+. After further trimming, two 2 mm sections (rings) per trachea were then placed in DMEM media containing PSG/HEPES/AA/NaPyr for 1 h and used immediately or maintained overnight at 37°C in a humidified incubator with 5% CO2. Rings were then mounted into chambers of DMT wire myograph containing L-shaped mounting pins with 2–3 mN of force applied to secure rings on the pins and the rings were allowed to equilibrate for 25–30 min in a physiological saline buffer (PSS, 130 mM NaCl, 4.7 mM KCl, 1.2 mM MgS04, 14.9 mM NaHCO3, 1.2 mM KH2PO4, 0.026 mM EDTA, 1.6 mM CaCl2, 5.5 mM Dextrose). Throughout the experiment, rings were maintained at physiological temperature and gas conditions by heating buffer reservoir and chamber to 37°C and bubbling a 95% O2, 5% CO2 gas mixture into chamber.
After equilibration, a standard tissue “Wake-Up” procedure was applied by altering tension and then treatment with elevated potassium as follows: 3 mN tension was applied for 5–10 min, then another 2–3 mN tension to total of 5.5 mN and then to 7–8 mN for another 5 min; the tissue pre-tension was then set to 5 mN and allowed to equilibrate for 5–10 min followed by the removal of the PSS buffer and addition of KPSS (60 mM KCl, 74.7 mM NaCl in PSS solution), with force changes monitored until they reached a plateau. The tissue was then washed four times with PSS over 5 min and the KPSS treatment and washes repeated; the tissue was then allowed to sit in PSS for 10 min and the tension was set to 5 mN.
The tissue was then washed three times and then three times more with PSS for 5 min until tension returned to baseline.
Only tissue that passed the qualification tests above advanced to studies on test article compounds. […] For standard ascending dose-response studies on TMEM16A antagonists, an EC75 or EC95 concentration of CCh was used to pre-contract tracheal rings.

human bronchial rings = test: Wire myograph bronchodilation of histamine pre-contracted human bronchial rings (Biopta)
Text: Details of bronchodilator studies shown in Figure 5H, 6 and Supplementary Figure 40 are provided below as part of the end assay report on Study CUR011 by Lee Christie (Biopta). Donors with any of the following conditions were excluded from the study: asthma, COPD, emphysema, lung cancer, cystic fibrosis, pulmonary fibrosis, pulmonary hypertension, pneumonia. Donors were also excluded if they had smoked in the past 12 months. Non-transplantable lung tissue was acquired from organ donors post mortem. Any macroscopically diseased/necrotic tissue was rejected. […] Human airway rings were set up under isometric conditions on a wire myograph in order to examine the influence of the test articles on bronchodilation. In order to assess tissue viability, the airways were challenged with carbachol (10 μM) and then isoprenaline (10 μM) to assess their constriction and relaxation responses, respectively. […] Viable airways were pre-constricted with histamine (10 μM), then exposed to one of the following cumulative concentration response curves (CCRCs): positive control, vehicle (water, volume matched to positive control), test article, vehicle (DMSO concentration matched to test articles). At the end of each CCRC, theophylline (2.2 mM) was added to induce maximal relaxation of the tissue. […] Airways were re-tensioned to 1.0 – 1.5 g if the tension had dropped below 1.0 g during the first 30 min of equilibration. (b) Airways were exposed to carbachol (bath concentration 10 μM) in order to measure their contractile responses and then isoprenaline (10 μM) in order to assess their relaxation. Airways were washed out and allowed to return to baseline. (c) Airways were pre-constricted with histamine (10 μM) before conducting a CCRC to the test article, the positive control (isoprenaline), test article vehicle or positive control vehicle.

mouse tracheal rings [4] = test: Bronchodilation of mouse tracheal rings at differing levels of carbachol pre-contraction; settings: for relaxation of airway rings: normalized to theophylline
Procedure: Standard procedures as listed above were used to prepare, mount and Wake-Up tracheal rings and the concentrations of carbachol providing EC25, EC50, EC75, or EC95 levels of contraction for each ring was determined as described above.

mouse tracheal rings [5] = test: Bronchodilation of cytokine-treated mouse tracheal rings; settings: overnight IL-1β, TNFα, IL-13 100 ng/ml, EC75 carbachol
Procedure: Airway rings were treated overnight in 2 ml DMEM + PSG/HEPES/AA/NaPyr buffer alone or with the same solution supplemented with 100 ng/ml of mTNFα, mIL-13 and mIL-1β. Unlike like the typical Wake-Up protocol and ring qualifying tests, mouse tracheal rings were not exposed to KPSS and rings were not observed to relax with a β-agonist following discovery of CCh dose-responses. After several washes with PSS, EC75 concentrations of CCh were used to pre-contract rings for >30 min alone or in the presence of cytokines.

mouse tracheal rings [6] = test: β-agonist use-dependent desensitization of mouse tracheal rings; settings: round 2
Text: Standard procedures were used to prepare and mount tissues.

mouse airway rings = test: Duration of bronchodilation after washout and carbachol re-challenge, mouse airway rings; settings: EC75 carbachol, preliminary
Procedure: Mouse airway rings were exposed to a typical Wake-Up procedure including the use of KPSS and discovery of EC75 CCh dose responses. However, no isoproterenol was used to observe tissue relaxation as part of the qualification procedure. With pre-contraction with EC75 CCh for >30 min, rings were subjected to a compound dose-response, followed by a complete washout of compound, and re-contracted with EC75 CCh. Traces were recorded for several hours thereafter and normalized to theophylline as control of 100% relaxation.

[7] = supplement, maximum concentration 55.6, read-out: TMEM16A eYFP Assay IC50

| SMILES | IC50 Ratio, Wnt/TMEM16A [1] | IC50 [2] [nM] | IC50 (hTMEM16A (abc); [7]) [nM] | further results |
| --- | --- | --- | --- | --- |
| O=C(Nc1ccc(Cl)cc1Cl)c1cc(Cl)ccc1O [Cpd 12] | 4.67 | 420 | 90 | IC50 (hTMEM16A (abc); average, 22-point dose-response, read-out: TMEM16A eYFP Assay (IC50)): 88 nM |
| CC(=O)c1ccc(NC(=O)c2cc(Cl)ccc2O)cc1 [Cpd 7] | 2.45 | 6420 | 2620 | – |
| O=C(Nc1ccccc1Cl)c1cc(Cl)ccc1O [Cpd 11] | 9.24 | 3050 | 330 | – |
| O=C(Nc1cc(Cl)cc(Cl)c1)c1cc(Cl)ccc1O [Cpd 13] | 3.50 | 700 | 200 | – |
| CS(=O)(=O)c1ccc(NC(=O)c2cc(Cl)ccc2O)c(Cl)c1 [Cpd 8] | 1.62 | 7660 | 4720 | – |
| CC(C)NCC(O)c1ccc(O)c(O)c1 (stereo not drawn) [Isoproterenol, isoproterenol] | – | – | – | time to relax mouse tracheal rings (mouse tracheal rings [3]; EC75 carbachol, 10 nM dose (Supplementary Figure 39)): 2 – 4 min and 2 − 4 min; EC50 (mouse tracheal rings [3]; EC75 carbachol, Exp 1-3, read-out: EC50 relaxation of mouse tracheal rings, individual experiments): 5.9 nM and 7.7 nM; EC50 (mouse tracheal rings [3]; Mus musculus, EC75 carbachol, Exp 1-3, read-out: EC50 relaxation of mouse tracheal rings, individual experiments): 8.1 nM; EC50 (mouse tracheal rings [3]; Mus musculus, pre-contracted with EC75 carbachol, average, read-out: EC50 relaxation of mouse tracheal rings): 7.1 nM; EC50 (human bronchial rings; Homo sapiens, 10 μM histamine, read-out: EC50 bronchodilating histamine precontracted human airways): 30 nM; time to steady-state relaxation of human bronchial rings (human bronchial rings; histamine pre-contracted, 10 or 100 nM): less than 7 min; time to open airways (human bronchial rings; summary): < 7 min; relaxation of airway rings (mouse tracheal rings [4]; EC25 level of carbachol): 100%; bronchodilation of a single maximally contracted ring (mouse tracheal rings [4]; EC95 carbachol, highest dose (1 μM)): 38% and 37.7%; relaxation of airway rings (mouse tracheal rings [4]; EC95 level of carbachol): 42%; bronchodilation of cytokine-treated airways (mouse tracheal rings [5]): dramatically reduced; % relaxation after second treatment and highest dose (mouse tracheal rings [6]; EC50 carbachol): 78.6%; % relaxation after second treatment and highest dose (mouse tracheal rings [6]; EC75 carbachol): 42.7%; duration of bronchodilation after washout and re-challenge (mouse airway rings): short-acting; also recorded: quickly lost |
| O=C(Nc1ccc(F)cc1F)c1cc(Cl)ccc1O [Cpd 17] | 12.97 | 4020 | 310 | – |
| O=C(Nc1cccc(Cl)c1)c1cc(Cl)ccc1O [Cpd 10] | 18.33 | 1650 | 90 | – |
| O=C(Nc1ccc(F)cc1)c1cc(Cl)ccc1O [Cpd 16] | 15.36 | 3840 | 250 | – |
| O=C(Nc1ccccc1)c1cc(Cl)ccc1O [Cpd 6] | 11.36 | 11800 | 1040 | – |
